This is an account of results in patent US7064120B2, “Tricyclic pyridyl carboxamides and derivatives thereof tocolytic oxytocin receptor antagonists” (Wyeth, priority 2001, dated 2006).

What is called inhibition is the share of the control response that was lost under treatment.

For the assay, the target named is T1, human oxytocin receptor (Homo sapiens, UniProt P30559).
T1 construct: host or cells: CHO cells, stably transfected (pcDNA3.1 vector)
T1 sequence (P30559 1-389): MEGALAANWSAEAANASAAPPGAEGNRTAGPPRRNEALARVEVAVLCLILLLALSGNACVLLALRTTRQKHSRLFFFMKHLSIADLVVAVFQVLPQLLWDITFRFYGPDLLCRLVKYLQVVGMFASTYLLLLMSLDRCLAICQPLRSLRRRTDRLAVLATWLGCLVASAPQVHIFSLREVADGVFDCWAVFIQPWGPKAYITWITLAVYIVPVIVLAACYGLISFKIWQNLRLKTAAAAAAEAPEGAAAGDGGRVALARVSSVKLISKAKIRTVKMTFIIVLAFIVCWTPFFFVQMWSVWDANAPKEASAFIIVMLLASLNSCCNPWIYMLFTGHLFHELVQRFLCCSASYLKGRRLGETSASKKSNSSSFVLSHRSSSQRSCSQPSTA
Description: Oxytocin binding in CHO cell membranes expressing human oxytocin receptors ([3H]oxytocin radioligand binding). To be noted: 100 nM, read-out: OT % inhibition @ 100 nM. The protocol: Oxytocin Binding in Chinese Hamster Ovary Cell Membranes Expressing Human Oxytocin Receptors
Cell Culture medium (e.g. 30 mL for 1:30 split) is immediately added and mixed well to inactivate trypsin. 1 mL of detached cells is added to new culture flasks containing fresh Cell Culture medium (e.g. into 25 mL per T-150 flask), and mixed gently. The cells are incubated at 37° C. in 5% CO2. The medium is changed at 3 to 4 days interval (or as appropriate). […] All steps are done under sterile conditions.
The cells are washed twice gently with Hank's Balanced Salt solution (e.g., use 10 mL per T-150 flask). […] The contents are transferred to centrifuge tubes (50 mL size) kept in ice bath. All subsequent steps are done at 4° C. The tubes are centrifuged at 300×g for 15 min (1380 rpm on SORVAL, Model RT6000D, using rotor for 50 mL tubes). The supernatant is discarded and the cells suspended in homogenizing buffer (10 mM Tris-HCl containing 0.25 M sucrose and 1 mM EDTA, pH 7.4) ensuring that the volume of the buffer is about ten times the volume of the cell pellet. The cells are pooled into a centrifuge tube (50 mL) and homogenized with a Polytron at setting 6 for 10 sec. The homogenate is transferred into a Potter-Elvjehm homogenizer and homogenized with 3 strokes. The homogenate is centrifuged at 1500×g for 10 min at 4° C. (3100 rpm using SORVAL, model RT6000D, using a rotor for 50 mL tubes). The pellet is discarded. The supernatant is centrifuged at 100,000×g for 60 min. at 4° C. (Beckman L8-80M ultracentrifuge; spin at 37,500 rpm with rotor type 70 Ti for 50 mL tubes; 38,000 rpm with rotor type 8OTi for 15 mL tubes; or 35,800 rpm with rotor type 45Ti). The supernantant is discarded and the pellet suspended in 3 to 4 mL of Tris buffer (50 mM TRIS-HCl, pH 7.4). The protein content is estimated by the Bradford or Lowry method. The volume of the membrane suspension is adjusted with the membrane buffer (50 mM Tris-HCl containing 0.1% BSA and 0.1 mM PMSF) to give 3.0 mg/mL (or as appropriate) of protein. The membranes are aliquoted and stored at −70° C.
In wells of a 96-well format microtiter plate, is added 90, 110 or 130 μL (to make up a final volume of 200 μL) of assay buffer containing 50 mM of Tris-HCl (pH 7.4), […], 1 mg % aprotinin, 1 mg % leupeptin, 2 mg % 1,10-phenanthroline, 10 mg % trypsin inhibitor, and 0.1 mM PMSF. The inhibitors are added on the day of the experiment. The components are mixed at room temperature, and then kept in ice bath following adjustment of the pH to 7.4. […] For oxytocin and other peptide ligands, 20 μL of 50% DMSO is added and the assay buffer volume is adjusted accordingly. To each well is added 50 μL of frozen membrane suspension thawed immediately prior to use and diluted in assay buffer to the required concentration (equivalent to 25 to 50 μg of protein/well as needed). 20 μL of 8 nM [^3H]oxytocin in the assay buffer, prepared just before use is added and incubated at room temperature for 60 min. shaking the plate on a mechanical shaker for the first 15 min. The incubation is stopped by rapid filtration of the plate contents followed by washing with ice-cold buffer (50 mM Tris-HCl, pH 7.4) using a cell harvester (Tomtek and Printed filtermat-B filter paper). The filter paper is thoroughly dried (7–12 min. in a microwave oven) and impregnated with MeltiLex B/H melt-on scintillation wax sheets and the radioactivity counted in a betaplate scintillation counter.
Binding data is either reported as percent inhibition at a certain concentration or if an IC50 was calculated, as a nanomolar concentration.
Take `Cc1cc(C(=O)N2Cc3ccc(C(=O)NCc4ccccn4)n3Cc3ccccc32)ccc1-c1ccccc1C(F)(F)F` [Example 35, 10-{[2-Methyl-2′-trifluoromethyl-[1,1′-biphenyl]-4-yl]carbonyl}-N-(2-pyridinylmethyl)-10,11-dihydro-5H-pyrrolo[2,1-c][1,4]benzodiazepine-3-carboxamide]: the inhibition at 0.1 µM was 27%. `COc1ccccc1-c1ccc(C(=O)N2Cc3ccc(C(=O)NCc4cccnc4)n3Cc3ccccc32)cc1C` [Example 36, 10-[(2′-Methoxy-2-methyl-[1,1′-biphenyl]-4-yl)carbonyl]-N-(3-pyridinylmethyl)-10,11-dihydro-5H-pyrrolo[2,1-c][1,4]benzodiazepine-3-carboxamide]: the inhibition at 0.1 µM stood at 46%. With `Cc1ccccc1-c1ccc(C(=O)N2Cc3ccc(C(=O)NCc4cccnc4)n3Cc3ccccc32)cc1C` [Example 37, 10-[(2,2′-Dimethyl-[1,1′-biphenyl]-4-yl)carbonyl]-N-(3-pyridinylmethyl)-10,11-dihydro-5H-pyrrolo[2,1-c][1,4]benzodiazepine-3-carboxamide], the inhibition at 0.1 µM turned out to be 60%. Regarding `COc1cccc(-c2ccc(C(=O)N3Cc4ccc(C(=O)NCc5cccnc5)n4Cc4ccccc43)cc2C)c1` [Example 38, 10-[(3′-Methoxy-2-methyl-[1,1′-biphenyl]-4-yl)carbonyl]-N-(3-pyridinylmethyl)-10,11-dihydro-5H-pyrrolo[2,1-c][1,4]benzodiazepine-3-carboxamide], the inhibition at 0.1 µM was 26%. For `COc1ccccc1-c1ccc(C(=O)N2Cc3ccc(C(=O)NCc4cccnc4)n3Cc3ccccc32)cc1` [Example 39, 10-[(2′-Methoxy-[1,1′-biphenyl]-4-yl)carbonyl]-N-(3-pyridinylmethyl)-10,11-dihydro-5H-pyrrolo[2,1-c][1,4]benzodiazepine-3-carboxamide], the inhibition at 0.1 µM was found to be 35%.

With `Cc1ccccc1-c1ccc(C(=O)N2Cc3ccc(C(=O)NCc4cccnc4)n3Cc3ccccc32)cc1` [Example 40, 10-[(2′-Methyl-[1,1′-biphenyl]-4-yl)carbonyl]-N-(3-pyridinylmethyl)-10,11-dihydro-5H-pyrrolo[2,1-c][1,4]benzodiazepine-3-carboxamide], the inhibition at 0.1 µM was determined as 17%. Consider `COc1cc(C(=O)N2Cc3ccc(C(=O)NCc4cccnc4)n3Cc3ccccc32)ccc1-c1ccccc1C` [Example 41, 10-[(2-Methoxy-2′-methyl-[1,1′-biphenyl]-4-yl)carbonyl]-N-(3-pyridinylmethyl)-10,11-dihydro-5H-pyrrolo[2,1-c][1,4]benzodiazepine-3-carboxamide], for which the inhibition at 0.1 µM was determined as 41%.

On to `COc1cc(-c2ccccc2C)c(Cl)cc1C(=O)N1Cc2ccc(C(=O)NCc3cccnc3)n2Cc2ccccc21` [Example 42, 10-[(6-Chloro-3-methoxy-2′-methyl-[1,1′-biphenyl]-4-yl)carbonyl]-N-(3-pyridinylmethyl)-10,11-dihydro-5H-pyrrolo[2,1-c][1,4]benzodiazepine-3-carboxamide], for which the inhibition at 0.1 µM is 33%.

In the case of `COc1cccc(-c2cc(OC)c(C(=O)N3Cc4ccc(C(=O)NCc5cccnc5)n4Cc4ccccc43)cc2Cl)c1` [Example 43, 10-[(6-Chloro-3,3′-dimethoxy-[1,1′-biphenyl]-4-yl)carbonyl]-N-(3-pyridinylmethyl)-10,11-dihydro-5H-pyrrolo[2,1-c][1,4]benzodiazepine-3-carboxamide], the inhibition at 0.1 µM is 18%.

With `COc1cc(C(=O)N2Cc3ccc(C(=O)NCc4cccnc4)n3Cc3ccccc32)ccc1-c1cccc2ccccc12` [Example 44, 10-[3-Methoxy-4-(naphthalen-1-yl)benzoyl]-N-(3-pyridinylmethyl)-10,11-dihydro-5H-pyrrolo[2,1-c][1,4]benzodiazepine-3-carboxamide], the inhibition at 0.1 µM turned out to be 22%.

In the case of `COc1ccccc1-c1ccc(C(=O)N2Cc3ccc(C(=O)NCc4cccnc4)n3Cc3ccccc32)cc1OC` [Example 45, 10-[(2,2′-Dimethoxy-[1,1′-biphenyl]-4-yl)carbonyl]-N-(3-pyridinylmethyl)-10,11-dihydro-5H-pyrrolo[2,1-c][1,4]benzodiazepine-3-carboxamide], the inhibition at 0.1 µM is 37%. Take `COc1cccc(-c2ccc(C(=O)N3Cc4ccc(C(=O)NCc5cccnc5)n4Cc4ccccc43)cc2OC)c1` [Example 46, 10-[(2,3′-Dimethoxy-[1,1′-biphenyl]-4-yl)carbonyl]-N-(3-pyridinylmethyl)-10,11-dihydro-5H-pyrrolo[2,1-c][1,4]benzodiazepine-3-carboxamide]: the inhibition at 0.1 µM turned out to be 31%. The figure for `O=C(NCc1cccnc1)c1ccc2n1Cc1ccccc1N(C(=O)c1ccc(-c3cccc4ccccc34)cc1Cl)C2` [Example 47, 10-[2-Chloro-4-(naphthalen-1-yl)benzoyl]-N-(3-pyridinylmethyl)-10,11-dihydro-5H-pyrrolo[2,1-c][1,4]benzodiazepine-3-carboxamide] is 1%. To `Cc1cc(C(=O)N2Cc3ccc(C(=O)NCc4cccnc4)n3Cc3ccccc32)ccc1-c1ccccc1C(F)(F)F` [Example 48, 10-{[2-Methyl-2′-trifluoromethyl-[1,1′-biphenyl]-4-yl]carbonyl}-N-(3-pyridinylmethyl)-10,11-dihydro-5H-pyrrolo[2,1-c][1,4]benzodiazepine-3-carboxamide] belongs 15%. As to `COc1ccccc1-c1ccc(C(=O)N2Cc3ccc(C(=O)NCCc4ccccn4)n3Cc3ccccc32)cc1C` [Example 49, 10-[(2′-Methoxy-2-methyl-[1,1′-biphenyl]-4-yl)carbonyl]-N-[2-(2-pyridinyl)ethyl]-10,11-dihydro-5H-pyrrolo[2,1-c][1,4]benzodiazepine-3-carboxamide], the inhibition at 0.1 µM worked out at 58%. For the molecule `Cc1ccccc1-c1ccc(C(=O)N2Cc3ccc(C(=O)NCCc4ccccn4)n3Cc3ccccc32)cc1C` [Example 50, 10-[(2,2′-Dimethyl-[1,1′-biphenyl]-4-yl)carbonyl]-N-[2-(2-pyridinyl)ethyl]-10,11-dihydro-5H-pyrrolo[2,1-c][1,4]benzodiazepine-3-carboxamide], the inhibition at 0.1 µM turned out to be 67%. For the molecule `COc1cccc(-c2ccc(C(=O)N3Cc4ccc(C(=O)NCCc5ccccn5)n4Cc4ccccc43)cc2C)c1` [Example 51, 10-[(3′-Methoxy-2-methyl-[1,1′-biphenyl]-4-yl)carbonyl]-N-[2-(2-pyridinyl)ethyl]-10,11-dihydro-5H-pyrrolo[2,1-c][1,4]benzodiazepine-3-carboxamide], the inhibition at 0.1 µM came to 31%. The figure for `COc1ccccc1-c1ccc(C(=O)N2Cc3ccc(C(=O)NCCc4ccccn4)n3Cc3ccccc32)cc1` [Example 52, 10-[(2′-Methoxy-[1,1′-biphenyl]-4-yl)carbonyl]-N-[2-(2-pyridinyl)ethyl]-10,11-dihydro-5H-pyrrolo[2,1-c][1,4]benzodiazepine-3-carboxamide] is 51%.
